From patent US7304068B2, “Substituted pyrazolo [1,5-A] pyrimidinyls and pharmaceutical uses therefore” (SmithKline Beecham Corporation, priority 2002, dated 2007)
pIC50: −log10 of the molar value.

tested on: HSV-1; experiment: HSV-1 replication in infected Vero 76 cells, DNA hybridization capture assay; format: cell-based, herpes simplex virus 1; conditions: Human alphaherpesvirus 1; HSV-1 infected Vero 76 cells (MOI=0.001), 40-48 hours incubation, HSV DNA detected by hybridization/chemiluminescence
Method: Vero 76 cells were maintained in MEM with Earle's salts, L-glutamine, 8% FBS (Hyclone, A-1111-L) and 100 units/mL Penicillin-100 μg/mL Streptomycin. For assay conditions, FBS was reduced to 2%. Cells are seeded into 96-well tissue culture plates at a density of 5×10^4 cells/well after being incubated for 45 min at 37° C. in the presence of HSV-1 or HSV-2 (MOI=0.001). Test compounds are added to the wells and the plates are incubated at 37° C. for 40-48 hours. Cell lysates are prepared as follows: media was removed and replaced with 150 μL/well 0.2 N NaOH with 1% igepal CA 630 or NP-40. Plates were incubated up to 14 days at room temperature in a humidified chamber to prevent evaporation.
For the detection probe, a gel-purified, digoxigenin-labeled, 710-bp PCR fragment of the HSV UL-15 sequence was utilized. PCR conditions included 0.5 μM primers, 180 μM dTTP, 20 μM dUTP-digoxigenin (Boehringer Mannheim 1558706), 200 μM each of dATP, dCTP, and dGTP, 1× PCR Buffer II (Perkin Elmer), 2.5 mM MgCl2, 0.025 units/μL of AmpliTaq Gold polymerase (Perkin Elmer), and 5 ng of gel-purified HSV DNA per 100 μL Extension conditions were 10 min at 95° C., followed by 30 cycles of 95° C. for 1 min, 55° C. for 30 sec, and 72° C. for 2 min. The amplification was completed with a 10-min incubation at 72° C. Primers were selected to amplify a 728 bp probe spanning a section of the HSV1 UL15 open reading frame (nucleotides 249-977). Single-stranded transcripts were purified with Promega M13 Wizard kits. The final product was mixed 1:1 with a mixture of 6 M GuSCN, 100 mM EDTA and 200 μg/mL herring sperm DNA and stored at 4° C.
The capture DNA plasmid (HSV UL13 region in pUC) was linearized by cutting with Xba I, denatured for 15 min at 95° C. and diluted immediately into Reacti-Bind DNA Coating Solution (Pierce, 17250, diluted 1:1 with TE buffer, pH 8) at 1 ng/μL. 75 μL/well were added to Corning (#3922 or 9690) white 96-well plates and incubated at room temperature for at least 4 hrs before washing twice with 300 μL/well 0.2×SSC/0.05% Tween-20 (SSC/T buffer). The plates were then incubated overnight at room temperature with 150 μL/well 0.2 N NaOH, 1% IGEPAL and 10 μg/mL herring sperm DNA.
Twenty-seven (27) μL of cell lysate was combined with 45 μL of hybridization solution (final concentration: 3M GuSCN, 50 mM EDTA, 100 μg/ml salmon sperm DNA, 5× Denhardt's solution, 0.25× APE, and 5 ng of the digoxigenin-labeled detection probe). APE is 1.5 M NH4-acetate, 0.15 M NH4H2 phosphate, and 5 mM EDTA adjusted to pH 6.0. Mineral oil (50 μL) was added to prevent evaporation. The hybridization plates were incubated at 95° C. for 10 minutes to denature the DNA, then incubated at 42° C. overnight. The wells were washed 6× with 300 μL/well SSC/T buffer then incubated with 75 μL/well anti-digoxigenin-HRP-conjugated antibody (Boehringer Mannheim 1207733, 1:5000 in TE) for 30 min at room temperature. The wells were washed 6× with 300 μL/well with PBS/0.05% Tween-20 before 75 μL/well SuperSignal LBA substrate (Pierce) was added. The plates were incubated at room temperature for 30 minutes and chemiluminescence was measured in a Wallac Victor reader.
The following results were obtained for HSV-1.

Structure (SMILES)	pIC50
COc1ccc(-c2nn3c(NC4CCCC4)ccnc3c2-c2ccnc(NC3CCCC3)c2)cc1 [Example 4, N-Cyclopentyl-3-[2-(cyclopentylamino)-4-pyridinyl]-2-(4-methoxyphenyl)pyrazolo[1,5-α]pyrimidin-7-amine]	6.22
c1ccc(-c2nn3c(N4CCCC4)ccnc3c2-c2ccnc(NC3CCCC3)c2)cc1 [Example 2, N-Cyclopentyl-4(2-phenyl-7-pyrrolidin-1-ylpyrazolo[1,5-α]pyrimidin-3-yl)pyridin-2-amine]	6.10
Fc1ccc(-c2nn3c(NC4CCCC4)ccnc3c2-c2ccnc(NC3CCCC3)c2)cc1 [Example 5, N-Cyclopentyl-3-[2-(cyclopentylamino)-4-pyridinyl]-2-(4-fluorophenyl)pyrazolo[1,5-α]pyrimidin-7-amine]	5.92
COc1ccc(-c2nn3c(NC4CCCC4)ccnc3c2-c2ccnc(NC3CCCC3)n2)cc1 [Example 6, N-Cyclopentyl-3-[2-(cyclopentylamino)pyrimidin-4-yl]-2-(4-methoxyphenyl)pyrazolo[1,5-α]pyrimidin-7-amine]	5.62
Fc1cc(-c2c(-c3ccccc3)nn3c(N4CCCC4)ccnc23)ccn1 [Example 1, 3-(2-Fluoropyridin-4-yl)-2-phenyl-7-pyrrolidin-1-ylpyrazolo[1,5-α]pyrimidine]	4.55
c1ccc(-c2nn3c(NC4CCCC4)ccnc3c2-c2ccnc(NC3CCCC3)c2)cc1 [Example 3, N-Cyclopentyl-3-[2-(cyclopentylamino)pyridin-4-yl]-2-phenylpyrazolo[1,5-α]pyrimidin-7-amine]	6.52
